Reference: ChEMBL document CHEMBL4028829, “New derivatives of ursolic acid through the biotransformation by Bacillus megaterium CGMCC 1.1741 as inhibitors on nitric oxide production” (Bioorg Med Chem Lett, 2017)

Tests used:
RAW264.7 [1] = assay: Inhibition of LPS-induced NO production in mouse RAW264.7 cells preincubated for 1 hr followed by LPS stimulation measured after 24 hrs by Griess assay; type: functional, cell-based
RAW264.7 [2] = assay: Pro-inflammatory activity in mouse RAW264.7 cells assessed as LPS-induced NO production at 0.625 to 60 uM preincubated for 1 hr followed by LPS stimulation measured after 24 hrs by Griess assay; type: ADME, cell-based; conditions: raw264.7, 24 h
[3] = Mus musculus, RAW264.7, read-out: IC50

Row | SMILES | IC50 (RAW264.7 [1]; [3]) | IC50 (RAW264.7 [1]; raw264.7) | Activity (RAW264.7 [2])
1 | C[C@H]1[C@H](C)CC[C@]2(C(=O)O)CC[C@]3(C)C(=C[C@@H](O)[C@@H]4[C@@]5(C)[C@H](O)C[C@H](O)C(C)(C)[C@@H]5CC[C@]43C)[C@H]12 | 40.1 µM | – | –
2 | C[C@H]1[C@H](C)CC[C@]2(C(=O)O)CC[C@]3(C)C(=CC[C@@H]4[C@@]5(C)CC[C@H](O)C(C)(C)[C@@H]5CC[C@]43C)[C@H]12 [URSOLIC ACID] | – | Not Active | Toxic
3 | C[C@H]1[C@H](C)CC[C@]2(C(=O)O)CC[C@]3(C)C(=CC[C@@H]4[C@@]5(C)CCC(=O)C(C)(C)[C@@H]5CC[C@]43C)[C@H]12 [URSONIC ACID] | 4.94 µM | – | –
4 | C[C@H]1[C@H](C)CC[C@]2(C(=O)O[C@@H]3O[C@H](CO)[C@@H](O)[C@H](O)[C@H]3O)CC[C@]3(C)C(=C[C@@H](O)[C@@H]4[C@@]5(C)[C@H](O)CC(=O)C(C)(C)[C@@H]5CC[C@]43C)[C@H]12 | > 60 µM | – | –
5 | O=c1c(O)c(-c2ccc(O)c(O)c2)oc2cc(O)cc(O)c12 [QUERCETIN] | 4.41 µM | – | –

Second part, led by results:

Row | IC50 (RAW264.7 [1]; [3]) | IC50 (RAW264.7 [1]; raw264.7) | SMILES | Activity (RAW264.7 [2])
6 | 1.71 µM | – | C[C@H]1[C@H](C)CC[C@@]23CC[C@]4(C)[C@@](C=C[C@@H]5[C@@]6(C)[C@H](O)CC(=O)C(C)(C)[C@@H]6CC[C@]54C)(OC2=O)[C@H]13 | –
7 | 1.24 µM | – | C[C@H]1[C@H](C)CC[C@]2(C(=O)O)CC[C@]3(C)C(=C[C@@H](O)[C@@H]4[C@@]5(C)[C@H](O)CC(=O)C(C)(C)[C@@H]5CC[C@]43C)[C@H]12 | –
